According to paper PMC10700596 (Nature Communications, 2023):
Where “and” joins values, the source holds several entries; their conditions need not be identical. Equal entries are not always repeated. Where two headings read alike, the source gives them in different places.

Legend:
[1] = biological target: T1, EP4R (Homo sapiens, UniProt P35408); test: PRESTO-Tango β-arrestin2 recruitment assay; type: cell-based
T1 construct: Tango fusion cassette (only 'tango' is printed); expressed in transfected cells; host or cells: HTLA cells (tTA-dependent luciferase reporter, β-arrestin2-TEV fusion)
T1 sequence (P35408 whole entry, the tested form may be a part): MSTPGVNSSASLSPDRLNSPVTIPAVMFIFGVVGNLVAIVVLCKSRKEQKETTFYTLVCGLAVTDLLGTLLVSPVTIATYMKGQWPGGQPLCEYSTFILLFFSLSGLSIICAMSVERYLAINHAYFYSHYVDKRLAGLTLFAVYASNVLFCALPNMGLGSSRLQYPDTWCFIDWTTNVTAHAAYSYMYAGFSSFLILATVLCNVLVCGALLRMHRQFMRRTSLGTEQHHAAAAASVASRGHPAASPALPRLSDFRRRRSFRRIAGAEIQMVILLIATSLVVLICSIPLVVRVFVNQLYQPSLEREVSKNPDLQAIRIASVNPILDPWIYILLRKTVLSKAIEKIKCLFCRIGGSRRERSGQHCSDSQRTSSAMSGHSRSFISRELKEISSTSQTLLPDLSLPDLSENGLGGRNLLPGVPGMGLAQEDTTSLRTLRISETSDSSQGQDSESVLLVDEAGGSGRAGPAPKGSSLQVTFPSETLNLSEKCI

[2] = biological target: PIK3C2B (Homo sapiens, UniProt O00750); test: biochemical; type: binding; details: 10000 nM; read-out: Percent Control
Sequence of PIK3C2B (O00750 whole entry): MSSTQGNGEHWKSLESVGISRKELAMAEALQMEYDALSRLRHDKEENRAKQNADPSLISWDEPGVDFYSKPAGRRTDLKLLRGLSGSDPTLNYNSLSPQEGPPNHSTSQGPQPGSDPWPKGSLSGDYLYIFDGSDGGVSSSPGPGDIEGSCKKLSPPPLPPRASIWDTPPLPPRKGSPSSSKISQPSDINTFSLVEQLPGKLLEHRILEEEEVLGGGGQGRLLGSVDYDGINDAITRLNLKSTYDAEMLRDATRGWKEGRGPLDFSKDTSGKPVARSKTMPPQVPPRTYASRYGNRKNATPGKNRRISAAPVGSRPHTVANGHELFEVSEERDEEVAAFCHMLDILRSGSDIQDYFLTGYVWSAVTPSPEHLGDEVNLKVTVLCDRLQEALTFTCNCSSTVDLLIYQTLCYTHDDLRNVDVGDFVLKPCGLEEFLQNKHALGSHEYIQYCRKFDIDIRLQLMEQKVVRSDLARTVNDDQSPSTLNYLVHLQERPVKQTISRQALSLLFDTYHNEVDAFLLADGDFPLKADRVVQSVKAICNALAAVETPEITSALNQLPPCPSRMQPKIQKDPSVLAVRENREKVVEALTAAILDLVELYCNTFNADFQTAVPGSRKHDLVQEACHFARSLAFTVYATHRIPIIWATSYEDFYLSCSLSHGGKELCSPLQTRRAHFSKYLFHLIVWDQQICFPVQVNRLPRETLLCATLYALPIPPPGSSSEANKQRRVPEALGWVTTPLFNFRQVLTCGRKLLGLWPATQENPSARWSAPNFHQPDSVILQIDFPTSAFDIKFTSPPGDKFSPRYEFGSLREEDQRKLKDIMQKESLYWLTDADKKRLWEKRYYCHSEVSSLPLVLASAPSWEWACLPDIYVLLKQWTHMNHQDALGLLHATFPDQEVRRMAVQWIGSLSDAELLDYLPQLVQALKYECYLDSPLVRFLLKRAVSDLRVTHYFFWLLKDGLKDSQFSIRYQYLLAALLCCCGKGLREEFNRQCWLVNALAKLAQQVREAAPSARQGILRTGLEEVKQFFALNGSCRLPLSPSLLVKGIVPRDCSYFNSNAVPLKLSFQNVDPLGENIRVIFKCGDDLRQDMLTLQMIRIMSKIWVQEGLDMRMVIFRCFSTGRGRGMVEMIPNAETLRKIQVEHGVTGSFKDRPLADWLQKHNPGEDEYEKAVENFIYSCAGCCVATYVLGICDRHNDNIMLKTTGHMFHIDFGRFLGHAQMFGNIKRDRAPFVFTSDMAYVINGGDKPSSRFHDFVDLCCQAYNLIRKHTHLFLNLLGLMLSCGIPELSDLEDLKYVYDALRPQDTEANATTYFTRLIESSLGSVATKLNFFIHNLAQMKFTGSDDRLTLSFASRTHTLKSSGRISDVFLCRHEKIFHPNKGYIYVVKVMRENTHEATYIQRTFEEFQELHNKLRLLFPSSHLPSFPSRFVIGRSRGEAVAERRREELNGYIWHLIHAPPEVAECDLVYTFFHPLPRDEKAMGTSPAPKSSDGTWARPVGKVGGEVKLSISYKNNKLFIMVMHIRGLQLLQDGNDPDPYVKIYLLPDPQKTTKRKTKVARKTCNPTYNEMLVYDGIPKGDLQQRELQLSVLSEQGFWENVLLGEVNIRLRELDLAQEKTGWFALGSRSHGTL
From the text: (§1) Source data are provided as a Source Data file.

[3] = biological target: PDGFRA (Homo sapiens, UniProt P16234); test: biochemical; type: binding; details: 10000 nM; read-out: Percent Control
From the text: as §1

[4] = biological target: MARK3 (Homo sapiens, UniProt P27448); test: biochemical; type: binding; details: 10000 nM; read-out: Percent Control
Sequence of MARK3 (P27448 whole entry): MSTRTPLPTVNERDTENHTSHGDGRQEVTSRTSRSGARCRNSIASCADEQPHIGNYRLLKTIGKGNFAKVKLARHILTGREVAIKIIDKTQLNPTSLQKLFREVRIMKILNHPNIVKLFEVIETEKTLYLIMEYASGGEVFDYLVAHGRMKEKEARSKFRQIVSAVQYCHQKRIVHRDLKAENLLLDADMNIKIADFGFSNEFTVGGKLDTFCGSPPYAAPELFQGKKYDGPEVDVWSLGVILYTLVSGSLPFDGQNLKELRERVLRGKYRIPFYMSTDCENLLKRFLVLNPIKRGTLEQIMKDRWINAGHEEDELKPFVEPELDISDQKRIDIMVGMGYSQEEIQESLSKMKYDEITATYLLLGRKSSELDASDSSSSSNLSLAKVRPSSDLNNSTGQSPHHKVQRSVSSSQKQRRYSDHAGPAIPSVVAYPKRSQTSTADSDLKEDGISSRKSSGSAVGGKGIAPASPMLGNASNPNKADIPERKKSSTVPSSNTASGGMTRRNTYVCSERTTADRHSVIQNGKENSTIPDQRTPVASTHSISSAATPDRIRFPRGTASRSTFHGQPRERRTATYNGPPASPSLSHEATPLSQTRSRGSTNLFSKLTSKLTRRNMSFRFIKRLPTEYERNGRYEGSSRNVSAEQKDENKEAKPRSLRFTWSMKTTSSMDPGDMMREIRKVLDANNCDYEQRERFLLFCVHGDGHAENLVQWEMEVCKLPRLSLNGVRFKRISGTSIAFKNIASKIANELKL
From the text: as §1

[5] = biological target: CSNK1G2 (Homo sapiens, UniProt P78368); test: biochemical; type: binding; details: 10000 nM; read-out: Percent Control
Sequence of CSNK1G2 (P78368 whole entry): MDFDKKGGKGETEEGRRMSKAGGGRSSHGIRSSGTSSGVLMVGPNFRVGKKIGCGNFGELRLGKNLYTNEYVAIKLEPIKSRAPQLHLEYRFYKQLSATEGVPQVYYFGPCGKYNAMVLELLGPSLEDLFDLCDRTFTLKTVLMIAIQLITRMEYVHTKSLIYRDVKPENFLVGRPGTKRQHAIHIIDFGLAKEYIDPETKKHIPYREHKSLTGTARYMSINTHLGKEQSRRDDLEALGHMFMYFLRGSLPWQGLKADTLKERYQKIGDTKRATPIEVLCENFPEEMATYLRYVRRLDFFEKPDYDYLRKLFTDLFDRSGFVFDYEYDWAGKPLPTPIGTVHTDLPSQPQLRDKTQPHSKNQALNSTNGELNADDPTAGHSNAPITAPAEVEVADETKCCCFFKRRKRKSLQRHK

[6] = biological target: T2, JAK2(JH1domain-catalytic) (Homo sapiens, UniProt O60674); test: KINOMEscan; type: binding
T2 construct: JAK2(JH1domain-catalytic); purchased Eurofins DiscoverX KINOMEscan (scanEDGE, 97 kinases)
T2 sequence (O60674 810-1132 limits assumed): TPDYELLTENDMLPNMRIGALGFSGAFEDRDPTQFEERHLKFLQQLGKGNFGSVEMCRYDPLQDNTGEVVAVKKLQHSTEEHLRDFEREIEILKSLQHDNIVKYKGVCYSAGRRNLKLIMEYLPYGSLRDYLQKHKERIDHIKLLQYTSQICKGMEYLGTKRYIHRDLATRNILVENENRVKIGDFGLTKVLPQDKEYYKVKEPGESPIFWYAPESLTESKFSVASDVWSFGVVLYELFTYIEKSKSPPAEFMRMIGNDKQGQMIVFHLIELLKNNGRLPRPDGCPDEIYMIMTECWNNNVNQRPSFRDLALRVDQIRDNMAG

[7] = biological target: T3, prostaglandin D2 (PGD2) receptor (Homo sapiens, UniProt Q9Y5Y4); test: Functional cAMP production assay, PGD2 receptor; type: cell-based
T3 sequence (Q9Y5Y4 1-395): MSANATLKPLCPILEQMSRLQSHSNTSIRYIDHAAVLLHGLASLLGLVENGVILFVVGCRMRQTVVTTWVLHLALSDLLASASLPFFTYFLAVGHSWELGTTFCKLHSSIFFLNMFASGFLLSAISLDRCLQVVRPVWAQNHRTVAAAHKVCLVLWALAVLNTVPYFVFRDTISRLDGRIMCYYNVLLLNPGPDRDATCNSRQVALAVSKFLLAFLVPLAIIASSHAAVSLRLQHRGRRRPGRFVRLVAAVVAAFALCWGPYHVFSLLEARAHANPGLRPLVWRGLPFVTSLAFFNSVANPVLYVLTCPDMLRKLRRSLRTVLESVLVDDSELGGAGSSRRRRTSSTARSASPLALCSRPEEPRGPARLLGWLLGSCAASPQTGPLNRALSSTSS

[8] = biological target: CSF1R (Homo sapiens, UniProt P07333); test: biochemical; type: binding; details: 10000 nM; read-out: Percent Control
Sequence of CSF1R (P07333 20-972): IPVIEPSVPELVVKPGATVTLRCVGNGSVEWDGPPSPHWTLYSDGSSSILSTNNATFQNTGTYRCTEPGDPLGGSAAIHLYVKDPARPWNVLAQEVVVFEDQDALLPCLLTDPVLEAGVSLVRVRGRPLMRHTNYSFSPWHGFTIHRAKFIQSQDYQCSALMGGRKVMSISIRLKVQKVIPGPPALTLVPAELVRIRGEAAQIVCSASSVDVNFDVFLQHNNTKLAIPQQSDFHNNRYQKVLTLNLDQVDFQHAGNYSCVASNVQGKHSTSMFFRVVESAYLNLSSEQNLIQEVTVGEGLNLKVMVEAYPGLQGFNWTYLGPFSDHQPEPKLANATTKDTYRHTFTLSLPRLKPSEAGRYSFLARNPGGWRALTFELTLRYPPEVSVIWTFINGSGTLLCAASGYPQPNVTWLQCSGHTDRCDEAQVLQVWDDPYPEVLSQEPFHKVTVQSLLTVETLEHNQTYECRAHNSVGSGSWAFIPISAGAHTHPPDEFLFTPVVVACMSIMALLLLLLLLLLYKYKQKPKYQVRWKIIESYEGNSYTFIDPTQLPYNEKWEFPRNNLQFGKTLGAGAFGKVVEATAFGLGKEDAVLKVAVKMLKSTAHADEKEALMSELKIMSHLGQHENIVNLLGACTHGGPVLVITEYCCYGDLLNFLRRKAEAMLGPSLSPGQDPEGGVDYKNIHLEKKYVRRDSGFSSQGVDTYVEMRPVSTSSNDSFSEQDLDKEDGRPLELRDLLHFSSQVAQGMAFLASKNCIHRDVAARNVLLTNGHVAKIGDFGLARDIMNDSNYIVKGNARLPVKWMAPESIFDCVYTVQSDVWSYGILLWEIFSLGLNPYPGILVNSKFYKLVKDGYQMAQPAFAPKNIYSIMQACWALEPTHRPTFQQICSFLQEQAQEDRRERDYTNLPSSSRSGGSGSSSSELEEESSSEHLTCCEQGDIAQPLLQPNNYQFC

[9] = in vivo; type: in vivo, mice; details: mice
[10] = male, CD-1, mouse, CSF, ip, 10 mg/kg, IP 10 mg/kg, CSF, mean, read-out: CSF concentrations of cmpd 7827_0016 in mice following IP (10 mg/kg) administration, C
[11] = male, CD-1, mouse, brain, ip, 10 mg/kg, IP 10 mg/kg, brain, individual animals, read-out: Brain concentration, Final
[12] = male, CD-1, mouse, brain, ip, 10 mg/kg, IP 10 mg/kg, brain, mean, read-out: Brain concentrations of cmpd 7827_0016 in mice following IP (10 mg/kg) administration, C

`O=C(O)C1CCC2(CC1)CC(Nc1ncnc3[nH]c4c(F)cccc4c13)C2` (stereo not drawn) [Compound 74, OC(=O)C1CCC2(CC(C2)NC=3N=CN=C4NC=5C(F)=CC=CC5C34)CC1] showed an IC50 ([1]; PRESTO-Tango IC50 (nM)) of 302 nM, a Ki ([1]; calculated using the Cheng Prusoff equation, read-out: PRESTO-Tango Ki*) of 0.0604 µM and a remaining activity at 10 µM [2] of 74%. The remaining activity at 10 µM [3] was 35%, the remaining activity at 10 µM [4] was 81% and the remaining activity at 10 µM [5] was 54%. The remaining binding at 10 µM ([6]; 10000 nM, read-out: Percent Control) was 0%, the “Signal (qPCR)” value ([6]; JAK2, [Compound] 0.001 nM) was 2.42e-6 and 2.15e-6 and the “Signal (qPCR)” value ([6]; JAK2, [Compound] 0.01 nM) was 2.35e-6 and 2.44e-6. The “Signal (qPCR)” value ([6]; JAK2, [Compound] 0.169 nM) was 2.62e-6 and 2.24e-6, the “Signal (qPCR)” value ([6]; JAK2, [Compound] 0.508 nM) was 2.26e-6 and 2.31e-6 and the “Signal (qPCR)” value ([6]; JAK2, [Compound] 1.52 nM) was 2.56e-6 and 2.32e-6. For the same compound, the “Signal (qPCR)” value ([6]; JAK2, [Compound] 13.7 nM) was 2.33e-6 and 2.17e-6, the “Signal (qPCR)” value ([6]; JAK2, [Compound] 41.2 nM) was 2.15e-6 and 2.16e-6 and the “Signal (qPCR)” value ([6]; JAK2, [Compound] 123 nM) was 2.08e-6 and 2e-6. For the same compound, the “Signal (qPCR)” value ([6]; JAK2, [Compound] 370 nM) was 1.2e-6, the “Signal (qPCR)” value ([6]; JAK2, [Compound] 3330 nM) was 1.6e-7 and 1.8e-7 and the “Signal (qPCR)” value ([6]; JAK2, [Compound] 10000 nM) was 4e-8. For the same compound, the “off-target activity at prostaglandin D2 receptor” value [7] was “no off-target activities”, the remaining activity at 10 µM [8] was 69% and the “brain and cerebral spinal fluid exposure” value ([9]; 10 mg/kg i.p.) was “only marginal brain and cerebral spinal fluid exposure”. For the same compound, the concentration at 5 min [9, 10] was 15.7 ng/mL, the concentration at 15 min [9, 10] was 70.5 ng/mL and the concentration at 30 min [9, 10] was 80.6 ng/mL. The concentration at 60 min [9, 10] was 158 ng/mL, the concentration at 120 min [9, 10] was 119 ng/mL and the concentration at 240 min [9, 10] was 26 ng/mL. It also gave a concentration at 360 min ([9]; male, CD-1, mouse, CSF, ip, 10 mg/kg, IP 10 mg/kg, CSF, individual animals, read-out: CSF concentration, Final) of 98.6 ng/mL, a concentration at 360 min [9, 10] of 80.9 ng/mL and a concentration at 480 min [9, 10] of 7.31 ng/mL. The concentration at 1440 min ([9]; male, CD-1, mouse, CSF, ip, 10 mg/kg, IP 10 mg/kg, CSF, 1440 min, mean, read-out: CSF concentrations of cmpd 7827_0016 in mice following IP (10 mg/kg) administration, C) was 10.8 ng/mL, the concentration at 5 min [9, 11] was 58.9 ng/g and the concentration at 5 min [9, 12] was 61.1 ng/g. It also gave a concentration at 15 min [9, 11] of 152 ng/g, a concentration at 15 min [9, 12] of 135 ng/g and a concentration at 30 min [9, 11] of 150 ng/g. For the same compound, the concentration at 30 min [9, 12] was 203 ng/g, the concentration at 60 min [9, 11] was 182 ng/g and the concentration at 60 min [9, 12] was 160 ng/g. The concentration at 120 min [9, 12] was 82.1 ng/g, the concentration at 240 min [9, 11] was 21.6 ng/g and the concentration at 240 min [9, 12] was 24.7 ng/g. For the same compound, the concentration at 360 min [9, 11] was 20.8 ng/g, the concentration at 360 min [9, 12] was 24.3 ng/g and the concentration at 480 min [9, 12] was 26.7 ng/g.
